{
  "source": "patent US7728020B2",
  "about": "“Amino acid derivatives” (Novartis AG, priority 2004, dated 2010)",
  "key": {"[1]": {"target": "T1, human S1P receptor EDG-1 (S1P1) (Homo sapiens, UniProt P21453)", "T1 construct": "expressed in transfected cells", "T1 sequence (P21453 whole entry)": "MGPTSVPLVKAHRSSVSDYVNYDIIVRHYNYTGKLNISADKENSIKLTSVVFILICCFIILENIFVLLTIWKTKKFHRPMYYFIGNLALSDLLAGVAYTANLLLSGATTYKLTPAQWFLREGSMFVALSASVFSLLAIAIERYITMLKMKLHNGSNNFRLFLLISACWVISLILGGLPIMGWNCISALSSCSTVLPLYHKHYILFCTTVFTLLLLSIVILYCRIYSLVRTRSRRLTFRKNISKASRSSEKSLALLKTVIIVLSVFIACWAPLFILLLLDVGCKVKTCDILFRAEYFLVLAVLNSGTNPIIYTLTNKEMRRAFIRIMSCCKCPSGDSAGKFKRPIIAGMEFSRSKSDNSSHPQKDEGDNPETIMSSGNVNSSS", "assay": "GTP[γ-35S] binding SPA, S1P receptor profiling (S1P1)", "type": "biochemical", "design": "key to S1P1 mode of action: Agon = agonist", "details": "GTP[γ-35S] SPA", "experimental": "(§1) Sphingosine-1-phosphate (SIP) Receptor Profiling\n(§2) Agonist activities of compounds are tested on the human S1P receptors EDG-1 (S1P1), EDG-3 (S1P3), EDG-5 (S1P2), EDG-6 (S1P4) and EDG-8 (S1P5). […] The assay technology used is SPA (scintillation proximity based assay). Briefly, DMSO dissolved compounds are serially diluted and added to SPA-based (Amersham-Pharmacia) immobilised S1P receptor expressing membrane protein (10-20 μg/well) in the presence of 50 mM Hepes, 100 mM NaCl, 10 mM MgCl2, 10 μM GDP, 0.1% fat free BSA and 0.2 nM GTP [γ^35S] (1200 Ci/mmol). After incubation in 96 well microtiterplates at RT for 120 min, unbound GTP [γ^35S] is separated by a centrifugation step. Luminescence of SPA beads triggered by membrane bound GTP [γ^35S] is quantified with a TOPcount plate reader (Packard). EC50s are calculated using standard curve fitting software. In this assay, the compounds of formula I have a binding affinity to S1P1 receptor <50 nM."}, "[2]": {"target": "T2, human S1P receptor EDG-6 (S1P4) (Homo sapiens, UniProt O95977)", "T2 construct": "expressed in transfected cells", "T2 sequence (O95977 1-384)": "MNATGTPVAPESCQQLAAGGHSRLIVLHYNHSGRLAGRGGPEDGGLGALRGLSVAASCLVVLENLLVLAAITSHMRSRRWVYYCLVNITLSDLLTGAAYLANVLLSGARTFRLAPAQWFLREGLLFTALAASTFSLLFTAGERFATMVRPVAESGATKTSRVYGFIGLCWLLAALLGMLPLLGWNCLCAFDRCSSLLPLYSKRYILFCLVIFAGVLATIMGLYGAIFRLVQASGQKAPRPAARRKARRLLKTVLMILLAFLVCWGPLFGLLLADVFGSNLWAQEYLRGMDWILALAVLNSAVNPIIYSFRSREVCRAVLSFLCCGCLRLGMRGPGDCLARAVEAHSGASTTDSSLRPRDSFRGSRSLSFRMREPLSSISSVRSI", "assay": "GTP[γ-35S] binding SPA, S1P receptor profiling (S1P4)", "type": "biochemical", "design": "key to S1P4 mode of action: Agon = agonist", "details": "GTP[γ-35S] SPA", "experimental": "as §1, §2"}, "[3]": {"target": "T3, human S1P receptor EDG-8 (S1P5) (Homo sapiens, UniProt Q9H228)", "T3 construct": "expressed in transfected cells", "T3 sequence (Q9H228 whole entry)": "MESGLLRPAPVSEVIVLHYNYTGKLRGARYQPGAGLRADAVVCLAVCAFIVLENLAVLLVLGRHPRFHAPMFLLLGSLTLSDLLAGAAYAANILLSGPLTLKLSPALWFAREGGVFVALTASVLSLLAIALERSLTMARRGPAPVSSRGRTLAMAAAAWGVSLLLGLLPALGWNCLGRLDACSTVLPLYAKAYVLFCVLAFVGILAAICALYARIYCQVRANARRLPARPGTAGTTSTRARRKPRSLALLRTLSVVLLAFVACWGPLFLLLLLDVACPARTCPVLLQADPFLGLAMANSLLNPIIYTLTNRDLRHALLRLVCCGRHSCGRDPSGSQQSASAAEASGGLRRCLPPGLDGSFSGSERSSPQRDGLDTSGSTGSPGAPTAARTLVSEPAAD", "assay": "GTP[γ-35S] binding SPA, S1P receptor profiling (S1P5)", "type": "biochemical", "design": "key to S1P5 mode of action: Agon = agonist", "details": "GTP[γ-35S] SPA", "experimental": "as §1, §2"}, "[4]": {"tested_on": "peripheral blood lymphocytes", "assay": "Blood lymphocyte depletion", "type": "in vivo", "details": "rats, 3.2 mg/kg p.o. after 6 h", "experimental": "B. In vivo: Blood Lymphocyte Depletion\nA compound of formula I or the vehicle is administered orally by gavage to rats. Tail blood for hematological monitoring is obtained on day −1 to give the baseline individual values, and at 2, 6, 24, 48 and 72 hours after application. In this assay, the compounds of formula I deplete peripheral blood lymphocytes when administered at a dose of 0.03 to 3 mg/kg. For example, following results are obtained: depletion of peripheral blood lymphocytes by more than 50%."}, "[5]": {"target": "T4, human S1P receptor EDG-3 (S1P3) (Homo sapiens, UniProt Q99500)", "T4 construct": "expressed in transfected cells", "T4 sequence (Q99500 whole entry)": "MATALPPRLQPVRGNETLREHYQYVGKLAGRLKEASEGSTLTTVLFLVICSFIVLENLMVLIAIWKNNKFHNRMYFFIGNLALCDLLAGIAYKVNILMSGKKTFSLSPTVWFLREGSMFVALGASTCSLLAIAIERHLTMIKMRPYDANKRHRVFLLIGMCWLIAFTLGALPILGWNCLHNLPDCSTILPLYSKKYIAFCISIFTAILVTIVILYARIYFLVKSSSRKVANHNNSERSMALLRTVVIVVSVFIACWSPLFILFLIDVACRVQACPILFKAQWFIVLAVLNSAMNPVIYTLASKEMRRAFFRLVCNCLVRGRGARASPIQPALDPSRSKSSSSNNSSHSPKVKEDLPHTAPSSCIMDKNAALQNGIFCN", "assay": "GTP[γ-35S] binding SPA, S1P receptor profiling (S1P3)", "type": "biochemical", "design": "key to S1P3 mode of action: Agon = agonist", "details": "GTP[γ-35S] SPA", "experimental": "as §1, §2"}, "[6]": {"details": "membranes of transfected CHO or RH7777 cells"}},
  "note": "pEC50: −log10 of the molar value.",
  "data": [
    {"smiles": "CCCCCCCOc1ccc(CC[C@@](C)(N)CC(=O)O)cc1", "note": "[Example 1, (R)-3-Amino-5-(4-heptyloxy-phenyl)-3-methyl-pentanoic acid]", "values": [
      {"measurement": "S1P1 mode of action", "setting": "[1]", "result": "Agon"},
      {"measurement": "pEC50", "setting": "[1]; [6]", "result": 7.96},
      {"measurement": "S1P4 mode of action", "setting": "[2]", "result": "Agon"},
      {"measurement": "pEC50", "setting": "[2]; [6]", "result": 6.93},
      {"measurement": "S1P5 mode of action", "setting": "[3]", "result": "Agon"},
      {"measurement": "pEC50", "setting": "[3]; [6]", "result": 6.69},
      {"measurement": "depletion of peripheral blood lymphocytes", "setting": "[4]", "result": "more than 50%"},
      {"measurement": "S1P3 mode of action", "setting": "[5]", "result": "Agon"},
      {"measurement": "pEC50", "setting": "[5]; [6]", "result": 6.68}
    ]}
  ]
}
